The record followed here is a melting point compilation (Tetko et al.; mined from patent text by program, amines drawn as free bases though some values may be those of a salt).

A value given as a limit tells only on which side of the number the result lay.

A word on the melting point: it is the temperature, or range, at which the solid turns liquid. `CCN(CC)c1ccc(CNc2cc(C(=O)Nc3ccc(F)c(F)c3)ccc2OC)cc1` came in with a melting point of 165 to 167 °C. Next, `COC(=O)c1ccccc1S(=O)(=O)Nn1cnn(-c2nc(OC)cc(OC)n2)c1=O`: 192 °C; `CCCCn1nc(C(C)(F)F)nc1Cc1ccc(-c2ccccc2-c2nnn[nH]2)nc1`: 180 to 182 °C; `Cn1ccc(S(=O)(=O)NC(C)(C)C)c1C=O`: 102 to 103 °C.

For `O=[N+]([O-])c1ccc(CSc2ccc(Cl)cc2)cc1`, the melting point is 66 to 68 °C. The figure for `CCOC(=O)C1=C(C)NC(N)=C(C(=O)OCC)C1c1ccccc1C` (stereo not drawn) is 130 °C. Next, `CCOc1cc2c(Nc3cc(OC)c(Cl)cc3Cl)c(C#N)cnc2cc1C#CCCN1CCN(C)CC1`: 158 to 160 °C; `CN1C(=O)C(N)=C(C#N)C1=O`: 284 °C. Next, `C[C@]1(CN2CC=C(c3ccccc3)CC2)Cn2cc([N+](=O)[O-])nc2O1`: 200 to 201 °C; `CCCCCCCCCCCCC(Oc1ccc(NS(=O)(=O)CCCC)cc1)C(=O)O` (stereo not drawn): 80 to 82 °C. In turn, `CN1C(=O)CCC(C)(C)c2cc(NC(=O)c3ccc(C(=O)O)cc3)ccc21` gave a melting point of over 275 °C.

Take `CCCc1nn(C)c2c(=O)[nH]c(-c3cc([N+](=O)[O-])ccc3OCC)nc12`: the melting point was in the range of 214 to 216 °C. Next, `CC(C)(C)c1cc(N=Nc2cc(Cl)ccc2Cl)c(O)c(C(C)(C)C)c1`: 121 to 126 °C; `N#CSCCNc1ccc(Cl)cc1[N+](=O)[O-]`: 154 to 155 °C; `Cc1oc(-c2ccccc2)nc1COc1ccc(C(=O)c2ccccc2OCC(=O)O)cc1`: 174 to 175 °C. Consider `NC(=O)C(F)(F)C1(c2ccc(Cl)cc2Cl)CO1` (stereo not drawn), for which the melting point lay in the range of 100 to 101 °C. As for `C[C@H]1CCCC(C)(C)[C@@H]1[C@H](O)c1ccccc1`, the melting point is 32 to 34 °C. Next, `COc1ccc(C(=O)Nc2ccccc2)cc1NC(=S)Nc1cccc(C(C)=O)c1`: 176 to 177 °C; `OC(Cc1ccccc1)c1nc(-c2ccncc2)cs1` (stereo not drawn): 120 to 122 °C; `CSC(=S)Nc1ccc(C)cc1C(=O)O`: 199 °C. Next, `Cc1noc(-c2ccc(S(C)(=O)=O)cc2)c1-c1ccc(-c2cscn2)cc1`: 119 °C. The figure for `O=C(O)C(=O)c1ccc(C(F)(F)F)cc1` is 63 to 65 °C. In turn, `CC(NC(=O)C(C)(C)CCl)c1ccc(Cl)cc1` (stereo not drawn) registered a melting point of 95 to 96 °C. `CCCCCN1C(=O)C(CCC(=O)O)(NC(=O)c2ccc(Cl)c(Cl)c2)c2ccccc21` (stereo not drawn) had a melting point of 202 to 204 °C. Regarding `O=C(O)c1cccc(N2C(=O)c3cccc([N+](=O)[O-])c3C2=O)c1`, the melting point lay within 354 to 355 °C.

The compound `COC(=O)C[C@@H](CC(=O)C=Cc1c(-c2ccc(F)cc2)c(-c2ccccc2)c(C(=O)Nc2cccc(S(N)(=O)=O)c2)n1C(C)C)O[Si](C)(C)C(C)(C)C` showed a melting point of 90 to 91 °C. The figure for `Cc1ccsc1C(=O)NCCO[N+](=O)[O-]` is 74 to 76 °C; for `O=C1[C@H]2CCC[C@H]2N(C(=O)CBr)c2ccccc2N1Cc1ccccc1F` (relative stereo) it is 198 to 200 °C. Next, `CCN(CC)c1ccc2cc(C(=O)O)c(=O)oc2c1`: 227 to 229 °C.

Turning to `Clc1ccc(-n2nc3cc(Cl)ccc3c2Cl)c(Cl)c1`, the melting point was found to be 120 °C. As for `COc1ccccc1OCC1(COc2ccccc2OC)NCCS1`, the melting point was in the range of 86 to 88 °C. Next, `COc1cccc(OCC2CC2)c1-c1cc(C(=O)C2(C(=O)O)C3CC4CC(C3)CC2C4)nn1-c1ccnc2cc(Cl)ccc12` (stereo not drawn): 200 °C; `COc1ccc(C(=O)Nc2nc3cc4c(cc3[nH]2)NC(=O)C4(C)C)cc1`: over 300 °C.

On to `Cc1cc2c(=O)c(-c3nnnn3C)cn(C)c2cc1C`, for which the melting point was 245 to 246 °C. The figure for `COC(=O)c1c(N)c2c(c(N)c1C#N)C(=O)c1ccccc1C2=O` is 215 to 218 °C. `CN(C)c1ncnc2c(-c3ccncc3)cnn12` came in with a melting point of 184 to 185 °C. Next, `COc1cc(C=O)cc(Cl)c1Cl`: 97 to 98.5 °C; `CC(=O)Nc1c(I)c(C(=O)O)c(I)c(C(=O)NCC(=O)O)c1I`: 201 to 202 °C.

On to `CC(CS)C(=O)N(CC(=O)O)c1ccccc1` (stereo not drawn), for which the melting point lay in the range of 168 to 170 °C.

`Cc1c(SCCN2CCOCC2)ccnc1CSc1nc2cc(C(=O)O)ccc2[nH]1` returned a melting point of 120 to 124 °C. With `CC1=CCC(=C2C(=O)C3(CS(=O)(=O)O)CCC2C3(C)C)C=C1` (stereo not drawn), the melting point worked out at 220 °C. Next, `COc1ccc2c(c1)C(=O)C(CC=O)C2` (racemic): 59 °C.

`Cc1c(C#N)sc2nc(-c3ccc4c(c3)OCO4)nc(N3CCOCC3)c12`: the melting point is 197 to 198 °C. Next, `O=C(NCCCC(F)(F)F)c1nc(-c2ccc(Cl)cc2Cl)c(-c2ccc(Cl)cc2)s1`: 99 to 101 °C; `O=C(O)c1cc(NCc2c(F)c(F)c(C(F)(F)F)c(F)c2F)ccc1[N+](=O)[O-]`: 121 °C; `Cn1ncc(-c2ccc(O)cc2)cc1=O`: 296 to 298 °C. The figure for `CCCCCCCCCCCCCCOc1cc(-c2ccccc2)c(OCC(=O)O)c(-c2ccccc2)c1` is 89 to 90 °C. On to `O=C(O)Cc1cccc2c(=O)cc(-c3cc(F)cc(F)c3)oc12`, for which the melting point lay in the range of 221 to 223 °C. The figure for `O=S(=O)(Nc1ccc2c(OCc3csc(-c4ccccc4Cl)n3)cccc2c1)C(F)(F)F` is 128 to 129 °C; for `CC(NC(=O)Cc1cc(F)cc(F)c1)C(=O)NC1C(=O)N(CCc2ccccc2)Cc2ccccc21` (stereo not drawn) it is 75 to 76 °C. Next, `Cc1cc2ncnn2c(N2CCN(C)CC2)n1`: 95 to 98 °C; `CS(=O)(=O)C(=C1CN(C(c2ccccc2)c2ccccc2)C1)c1cccc2cccnc12`: 212 °C; `O=C(O)CCNC(=O)C(CS)Cc1ccccc1` (stereo not drawn): 76 to 82 °C. Next, `CC(C)(C)OC(=O)N(C[C@H](O)COc1ccc(O)cc1)C1CNC1`: 130 to 134 °C; `O=Cc1cc(C(=O)c2ccccc2)ccc1[N+](=O)[O-]`: 96.7 °C.

`CC1N=C(N2CCN(C)CC2)NN=C1c1ccccc1` (stereo not drawn): the melting point lay in the range of 124 to 125 °C. Next, `C[C@@H](n1ncn(-c2ccncc2)c1=O)[C@@]1(c2ccc(F)cc2F)CO1`: 96 to 97 °C; `Cc1nc2ccc(Nc3nccc(-c4ccc(N5CCNCC5)nc4)n3)cc2[nH]1`: 245 to 250 °C; `CS(=O)(=O)c1ccc(-c2cc([N+](=O)[O-])sc2-c2ccc(F)cc2)cc1`: 155 to 156 °C. Next, `N#Cc1cnn2c(-c3ccccc3)ccnc12`: 230 to 232 °C; `O=C(NCc1ccn(-c2cc3nc(C(=O)O)c(=O)[nH]c3cc2C(F)(F)F)c1)Nc1cccc(F)c1`: 169 to 171 °C; `CCN(CC)C(=O)n1cc(C(F)F)c(S(=O)(=O)c2cccc(Cl)c2)n1`: 86 to 88 °C. For `CCOC(=O)C(C(=O)Cc1cc(OC(C)C)c(Cl)cc1F)=C(N)C(F)(F)F`, the melting point lay in the range of 58 to 59 °C. As for `CCOCc1nc2c(N)nc3cc(OCc4ccccc4)ccc3c2n1CC(C)(C)NC(C)=O`, the melting point is 202 to 205 °C.

In the case of `COC(c1ccc(Cl)cc1)(c1ccc(NC(=O)c2cccc(I)c2C(=O)NC(C)C)c(C)c1)C(F)(F)F` (stereo not drawn), the melting point was 212 to 214 °C. Next, `CCOC(=O)C1(Sc2ccccc2[N+](=O)[O-])Cc2ccc(N(C)C)cc2NC1=O` (stereo not drawn): 174 to 176 °C; `Cc1ccc(C(=O)CC(=O)C(F)F)cc1Cl`: 40 to 41 °C.

Compound `COc1ccc2ccc(N3C(=O)c4ccccc4C3OCC(=O)OC(C)(C)C)nc2n1` (stereo not drawn) displayed a melting point of 188 °C. Consider `CCOC(=O)c1cn2c(n1)SCC2`, for which the melting point fell in the range of 107 to 109 °C. Compound `CCOC(=O)CS(=O)CCSc1cc(C(C)(C)C)c(O)c(C(C)(C)C)c1` (stereo not drawn) yielded a melting point of 110 °C.

The compound `CC(Oc1ccc(Oc2ccc(C(F)(F)F)cc2)cc1)C(=O)OCS(C)(=O)=O` (stereo not drawn) displayed a melting point of 87 to 88 °C. Compound `NCCCCCCCCCCN1CCN(CC(=O)N2c3ccccc3C(=O)Nc3cccnc32)CC1` yielded a melting point of 95 to 97 °C. Next, `CCOC(=O)c1ccc(F)c(-c2cccc3cc(CBr)sc23)c1`: 143 to 144 °C; `N#CN=c1ccccn1Cc1ccccc1`: 139 to 140 °C; `OCc1cccc2c1SC(c1ccccc1)=CC2`: 120 to 122 °C.

In the case of `CC(CC=O)P(=O)(O)CCCCc1ccccc1` (stereo not drawn), the melting point amounted to 138 °C.

`CCCc1nc2c(N)nc3cc(Oc4cccc(NCC)c4)ccc3c2n1CC(C)C` gave a melting point of 168 to 174 °C. The figure for `C=CCN1C(=O)c2ccccc2Oc2nc(Cl)ccc21` is 110 to 112 °C. The figure for `O=C(C=Cc1ccc(Cl)c(Cl)c1)C1C(=O)CCC1=O` is 190 to 191 °C; for `O=c1[nH]ncc2[nH]c(-c3ccc(OC(F)F)c(OC4CC4)c3)c(Cl)c12` it is 281 to 283 °C; for `NC(=O)c1nc(C2CC2)nc(NCc2ccco2)c1Cl` it is 126 to 128 °C. Next, `COc1ccc(COc2cccnc2NC(=N)Nc2ccc(Cl)cc2)cc1`: 165 to 166 °C. As to `CC(C)c1ccccc1N1/C(=N\N=C/c2ccc(-c3ncn(-c4ccc(OC(F)(F)F)cc4)n3)cc2)SCC1C` (stereo not drawn), the melting point was in the range of 201 to 204 °C. Next, `CC(=O)c1ccc(C2CCCC2)cc1`: 100 to 102 °C; `CC(c1c[nH]cn1)c1cccc(C(=N)N)c1O` (stereo not drawn): 191 °C; `CC1COCc2nc3c(N)nc4ccc(OCc5cscn5)cc4c3n21` (stereo not drawn): 240 to 242 °C.

The compound `CCOC(=O)C(Oc1nc(OC)cc(OC)n1)C(C)(C)c1ccccc1` (stereo not drawn) came in with a melting point of 123 to 124 °C. The figure for `NC(=O)C1CCc2c(C(=O)c3ccc(Cl)cc3)cccc21` (stereo not drawn) is 159 to 161 °C.
